From US20100298141A1, “SUBSTITUTED PYRIDINE N-OXIDE HERBICIDES” (E. I. DU PONT DE NEMOURS AND COMPANY, priority 2007, published 2010)

Columns and labels:
green foxtail = test: Test C pre-/postemergence test; format: in vivo, Setaria viridis
Procedure, shortened: (§1)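 Seeds were planted and treated preemergence with test chemical in a non-phytotoxic solvent mixture containing surfactant. Postemergence applications of the same formulation went onto plants 2 to 18 cm tall (1- to 4-leaf stage). A dash marks no test result.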

Goosegrass = test: Test C pre-/postemergence test; format: in vivo, Eleusin indica
Procedure, shortened: as §1

crabgrass [1] = test: Test C pre-/postemergence test; format: in vivo, Digitaria sanguinalis
Procedure, shortened: as §1

velvetleaf = test: Test A pre-/postemergence greenhouse test; format: in vivo, Abutilon theophrasti; conditions: for Plant response rating, Velvetleaf: 0 to 100 scale where 0 is no effect and 100 is complete control; for Velvetleaf plant response rating: 0 to 100 scale
Procedure, shortened: (§2)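 Seeds sown in a loam soil–sand blend got a preemergence directed soil spray of compound in a non-phytotoxic solvent mixture containing surfactant. Postemergence sprays of the same formulation went at the same time onto plants 2–10 cm tall at the one- to two-leaf stage. Injury was scored visually against untreated controls after about ten days in the greenhouse.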

yellow nutsedge = test: Test C pre-/postemergence test; format: in vivo, Cyperus esculentus
Procedure, shortened: as §1

crabgrass [2] = test: Test A pre-/postemergence greenhouse test; format: in vivo, Digitaria sanguinalis; conditions: for Plant response rating, Crabgrass, Large: 0 to 100 scale where 0 is no effect and 100 is complete control; for Crabgrass, Large plant response rating: 0 to 100 scale
Procedure, shortened: as §2

Italian ryegrass = test: Test C pre-/postemergence test; format: in vivo, Lolium multiflorum
Procedure, shortened: as §1

barnyardgrass [3] = test: Test A pre-/postemergence greenhouse test; format: in vivo, Echinochloa crus-galli; conditions: for Plant response rating, Barnyardgrass: 0 to 100 scale where 0 is no effect and 100 is complete control; for Barnyardgrass plant response rating: 0 to 100 scale
Procedure, shortened: as §2

umbrella sedge = test: Test C flooded paddy test; format: in vivo, Cyperus difformis; conditions: Flood
Procedure, shortened: (§3)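 Under a constant 3 cm flood, test compounds went directly into the paddy water. Following 13 to 15 days of greenhouse growth, treated species and controls were compared by eye.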

corn [4] = test: Test C pre-/postemergence test; format: in vivo, Zea mays
Procedure, shortened: as §1

pigweed = test: Test C pre-/postemergence test; format: in vivo, Amaranthus retroflexus
Procedure, shortened: as §1

bermudagrass = test: Test C pre-/postemergence test; format: in vivo, Cynodon dactylon
Procedure, shortened: as §1

duck salad = test: Test C flooded paddy test; format: in vivo, Heteranthera limosa; conditions: Flood
Procedure, shortened: as §3

barnyardgrass [5] = test: Test C flooded paddy test; format: in vivo, Echinochloa crus-galli; conditions: Flood
Procedure, shortened: as §3

johnsongrass = test: Test C pre-/postemergence test; format: in vivo, Sorghum halepense
Procedure, shortened: as §1

soybean = test: Test C pre-/postemergence test; format: in vivo, Glycine max
Procedure, shortened: as §1

corn [6] = test: Test A pre-/postemergence greenhouse test; format: in vivo, Zea mays; conditions: for Plant response rating, Corn: 0 to 100 scale where 0 is no effect and 100 is complete control; for Corn plant response rating: 0 to 100 scale
Procedure, shortened: as §2

[7] = 62 g ai/ha, Preemergence, scale 0 to 100
[8] = 125 g ai/ha, preemergence, scale 0 (no effect) to 100 (complete control)
[9] = Preemergence, 31 g ai/ha, scale 0 to 100 (0 no effect, 100 complete control)
[10] = preemergence, 250 g ai/ha, scale 0 (no effect) to 100 (complete control)
[11] = Postemergence, 500 g ai/ha, 0 is no effect, 100 is complete control
[12] = Preemergence, 125 g ai/ha, 0 no effect, 100 complete control
[13] = 62 g ai/ha, scale 0 to 100 (0 no effect, 100 complete control)
[14] = 250 g ai/ha, scale 0 to 100, 0 no effect, 100 complete control, 13 to 15 days
[15] = 31 g ai/ha, Preemergence, scale 0 to 100
[16] = 62 g ai/ha, preemergence, scale 0 (no effect) to 100 (complete control)
[17] = preemergence, 125 g ai/ha, scale 0 (no effect) to 100 (complete control)
[18] = Postemergence, 125 g ai/ha, 0 is no effect, 100 is complete control
[19] = 31 g ai/ha, scale 0 to 100 (0 no effect, 100 complete control)
[20] = 62 g ai/ha, scale 0 to 100, 0 no effect, 100 complete control, 13 to 15 days
[21] = 125 g ai/ha, scale 0 to 100, 0 no effect, 100 complete control, 13 to 15 days
[22] = 250 g ai/ha, scale 0 to 100 (0 no effect, 100 complete control)

Cn1nc(C(F)(F)F)c(CS(=O)(=O)c2ccc(Cl)c[n+]2[O-])c1OCC(F)(F)F [Compound 73]
Foxtail, Green plant response rating (green foxtail; [7]): 70 | Foxtail, Green plant response rating (green foxtail; [8]): 100 | Plant response rating, Foxtail, Green (green foxtail; [9]): 70 | Goosegrass plant response rating (Goosegrass; [7]): 100 | Goosegrass plant response rating (Goosegrass; [8]): 100 | Plant response rating, Goosegrass (Goosegrass; [9]): 98 | Goosegrass plant response rating (Goosegrass; [10]): 100 | Crabgrass, Large plant response rating (crabgrass [1]; [7]): 85 | Crabgrass, Large plant response rating (crabgrass [1]; [8]): 85 | Plant response rating, Crabgrass, Large (crabgrass [1]; [9]): 85 | Crabgrass, Large plant response rating (crabgrass [1]; [10]): 95 | Plant response rating, Velvetleaf (velvetleaf; Postemergence, 125 g ai/ha): 0 | Velvetleaf plant response rating (velvetleaf; [11]): 50 | Velvetleaf plant response rating (velvetleaf; [12]): 0 | Plant response rating, Velvetleaf (velvetleaf; Preemergence, 500 g ai/ha): 60 | Nutsedge, Yellow plant response rating (yellow nutsedge; [7]): 0 | Nutsedge, Yellow plant response rating (yellow nutsedge; [8]): 40 | Plant response rating, Nutsedge, Yellow (yellow nutsedge; [9]): 0 | Nutsedge, Yellow plant response rating (yellow nutsedge; [10]): 80 | Plant response rating, Crabgrass, Large (crabgrass [2]; Postemergence, 125 g ai/ha): 60 | Crabgrass, Large plant response rating (crabgrass [2]; [11]): 80 | Crabgrass, Large plant response rating (crabgrass [2]; [12]): 70 | Plant response rating, Crabgrass, Large (crabgrass [2]; Preemergence, 500 g ai/ha): 90 | Ryegrass, Italian plant response rating (Italian ryegrass; [7]): 10 | Ryegrass, Italian plant response rating (Italian ryegrass; [8]): 60 | Plant response rating, Ryegrass, Italian (Italian ryegrass; [9]): 0 | Ryegrass, Italian plant response rating (Italian ryegrass; [10]): 98 | Plant response rating, Barnyardgrass (barnyardgrass [3]; Postemergence, 125 g ai/ha): 70 | Barnyardgrass plant response rating (barnyardgrass [3]; [11]): 80 | Barnyardgrass plant response rating (barnyardgrass [3]; [12]): 90 | Plant response rating, Barnyardgrass (barnyardgrass [3]; Preemergence, 500 g ai/ha): 90 | Plant response rating, Sedge, Umbrella (umbrella sedge; [13]): 0 | Plant response rating, Sedge, Umbrella (umbrella sedge; [14]): 65 | Corn plant response rating (corn [4]; [7]): 0 | Corn plant response rating (corn [4]; [8]): 0 | Plant response rating, Corn (corn [4]; [9]): 0 | Corn plant response rating (corn [4]; [10]): 30 | Pigweed plant response rating (pigweed; [7]): 100 | Pigweed plant response rating (pigweed; [8]): 100 | Plant response rating, Pigweed (pigweed; [9]): 90 | Pigweed plant response rating (pigweed; [10]): 100 | Bermudagrass plant response rating (bermudagrass; 62 g ai/ha, Preemergence, scale 0 to 100 (0 no effect, 100 complete control)): 100 | Bermudagrass plant response rating (bermudagrass; [8]): 100 | Plant response rating, Bermudagrass (bermudagrass; [9]): 80 | Bermudagrass plant response rating (bermudagrass; [10]): 100 | Plant response rating, Ducksalad (duck salad; [13]): 70 | Plant response rating, Ducksalad (duck salad; [14]): 85 | Plant response rating, Barnyardgrass (barnyardgrass [5]; [13]): 0 | Plant response rating, Barnyardgrass (barnyardgrass [5]; [14]): 65 | Johnsongrass plant response rating (johnsongrass; [7]): 100 | Johnsongrass plant response rating (johnsongrass; [8]): 100 | Plant response rating, Johnsongrass (johnsongrass; [9]): 70 | Johnsongrass plant response rating (johnsongrass; [10]): 100 | Soybean plant response rating (soybean; [7]): 0 | Plant response rating, Soybean (soybean; [9]): 0 | Soybean plant response rating (soybean; [10]): 70 | Plant response rating, Corn (corn [6]; Postemergence, 125 g ai/ha): 0 | Corn plant response rating (corn [6]; [11]): 0 | Corn plant response rating (corn [6]; [12]): 0 | Plant response rating, Corn (corn [6]; Preemergence, 500 g ai/ha): 30

Cc1cc[n+]([O-])c(S(=O)(=O)C(C)c2c(C(F)(F)F)nn(C)c2Cl)c1 (racemic) [Compound 14]
Foxtail, Green plant response rating (green foxtail; [15]): 90 | Foxtail, Green plant response rating (green foxtail; [16]): 100 | Plant response rating (0 to 100), Foxtail, Green (green foxtail; Preemergence, 250 g ai/ha): 100 | Foxtail, Green plant response rating (green foxtail; [17]): 100 | Goosegrass plant response rating (Goosegrass; [15]): 100 | Goosegrass plant response rating (Goosegrass; [16]): 100 | Plant response rating (0 to 100), Goosegrass (Goosegrass; Preemergence, 250 g ai/ha): 100 | Goosegrass plant response rating (Goosegrass; [17]): 100 | Crabgrass, Large plant response rating (crabgrass [1]; [15]): 100 | Crabgrass, Large plant response rating (crabgrass [1]; [16]): 100 | Plant response rating (0 to 100), Crabgrass, Large (crabgrass [1]; Preemergence, 250 g ai/ha): 100 | Crabgrass, Large plant response rating (crabgrass [1]; [17]): 100 | Velvetleaf plant response rating (velvetleaf; [18]): 0 | Velvetleaf plant response rating (velvetleaf; [11]): 60 | Velvetleaf plant response rating (velvetleaf; [12]): 0 | Plant response rating, Velvetleaf (velvetleaf; Preemergence, 500 g ai/ha): 60 | Nutsedge, Yellow plant response rating (yellow nutsedge; [15]): 40 | Nutsedge, Yellow plant response rating (yellow nutsedge; [16]): 70 | Plant response rating (0 to 100), Nutsedge, Yellow (yellow nutsedge; Preemergence, 250 g ai/ha): 100 | Nutsedge, Yellow plant response rating (yellow nutsedge; [17]): 98 | Crabgrass, Large plant response rating (crabgrass [2]; [18]): 40 | Crabgrass, Large plant response rating (crabgrass [2]; [11]): 70 | Crabgrass, Large plant response rating (crabgrass [2]; [12]): 90 | Plant response rating, Crabgrass, Large (crabgrass [2]; Preemergence, 500 g ai/ha): 100 | Ryegrass, Italian plant response rating (Italian ryegrass; [15]): 20 | Ryegrass, Italian plant response rating (Italian ryegrass; [16]): 55 | Plant response rating (0 to 100), Ryegrass, Italian (Italian ryegrass; Preemergence, 250 g ai/ha): 100 | Ryegrass, Italian plant response rating (Italian ryegrass; [17]): 100 | Barnyardgrass plant response rating (barnyardgrass [3]; [18]): 30 | Barnyardgrass plant response rating (barnyardgrass [3]; [11]): 60 | Barnyardgrass plant response rating (barnyardgrass [3]; [12]): 80 | Plant response rating, Barnyardgrass (barnyardgrass [3]; Preemergence, 500 g ai/ha): 100 | Plant response rating, Sedge, Umbrella (umbrella sedge; [19]): 75 | Plant response rating, Sedge, Umbrella (umbrella sedge; [20]): 85 | Plant response rating, Sedge, Umbrella (umbrella sedge; [21]): 100 | Plant response rating, Sedge, Umbrella (umbrella sedge; [22]): 100 | Corn plant response rating (corn [4]; [15]): 0 | Corn plant response rating (corn [4]; [16]): 20 | Plant response rating (0 to 100), Corn (corn [4]; Preemergence, 250 g ai/ha): 80 | Corn plant response rating (corn [4]; [17]): 60 | Pigweed plant response rating (pigweed; [15]): 100 | Pigweed plant response rating (pigweed; [16]): 100 | Plant response rating (0 to 100), Pigweed (pigweed; Preemergence, 250 g ai/ha): 100 | Pigweed plant response rating (pigweed; [17]): 100 | Bermudagrass plant response rating (bermudagrass; [15]): 80 | Bermudagrass plant response rating (bermudagrass; [16]): 100 | Plant response rating (0 to 100), Bermudagrass (bermudagrass; Preemergence, 250 g ai/ha): 100 | Bermudagrass plant response rating (bermudagrass; [17]): 100 | Plant response rating, Ducksalad (duck salad; [19]): 40 | Plant response rating, Ducksalad (duck salad; [20]): 50 | Plant response rating, Ducksalad (duck salad; [21]): 80 | Plant response rating, Ducksalad (duck salad; [22]): 100 | Plant response rating, Barnyardgrass (barnyardgrass [5]; [19]): 0 | Plant response rating, Barnyardgrass (barnyardgrass [5]; [20]): 0 | Plant response rating, Barnyardgrass (barnyardgrass [5]; [21]): 60 | Plant response rating, Barnyardgrass (barnyardgrass [5]; [22]): 100 | Johnsongrass plant response rating (johnsongrass; [15]): 45 | Johnsongrass plant response rating (johnsongrass; [16]): 60 | Plant response rating (0 to 100), Johnsongrass (johnsongrass; Preemergence, 250 g ai/ha): 100 | Johnsongrass plant response rating (johnsongrass; [17]): 100 | Soybean plant response rating (soybean; [15]): 0 | Soybean plant response rating (soybean; [16]): 0 | Plant response rating (0 to 100), Soybean (soybean; Preemergence, 250 g ai/ha): 85 | Soybean plant response rating (soybean; [17]): 5 | Corn plant response rating (corn [6]; [18]): 0 | Corn plant response rating (corn [6]; [11]): 50 | Corn plant response rating (corn [6]; [12]): 0 | Plant response rating, Corn (corn [6]; Preemergence, 500 g ai/ha): 70
